Test results published in ChEMBL document CHEMBL1201862, “PubChem BioAssay data set” (2004).
The source made the active and inactive calls.

Tests used:
[1] = cytotoxicity in MITF-independent A375 cells – cell-based, CellTiter-Glo luminescence, dry powder, set 4, counter-screen for MITF inhibitor project, dose response (AID 624364); type: functional; conditions: A-375;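 further: A375 melanoma cells are MITF independent so this is a counter screen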
[2] = MITF Orthogonal Assay: MALME3 CTG Assay Measured in Cell-Based System Using Plate Reader - 2084-04_Inhibitor_Dose_DryPowder_Activity_Set6.; type: functional; conditions: MALME-3
[3] = MITF Measured in Cell-Based System Using Plate Reader - 2084-01_Inhibitor_Dose_DryPowder_Activity_Set6.; type: functional
[4] = cytotoxicity in melanoma parental cells – cell-based, CellTiter-Glo, dry powder, set 6, MITF inhibitor project, dose response (AID 624429); type: functional; conditions: SK-MEL-5
[5] = inhibitors of TRPM1-promoter reporter in SK-MEL-5 – cell-based, luciferase, dry powder, set 9, MITF inhibitor project, dose response (AID 651588); type: functional
[6] = growth inhibition of MALME3 cells – cell-based, CellTiter-Glo luminescence, dry powder, set 5, orthogonal assay for MITF inhibitor project, dose response (AID 651584); type: functional; conditions: MALME-3
[7] = growth inhibition of SK-MEL-5 melanoma cells – cell-based, CellTiter-Glo luminescence, dry powder, set 8, orthogonal assay for MITF inhibitor project, dose response (AID 651586); type: functional
[8] = MITF Orthogonal Assay: SK-MEL-5 CTG Assay Measured in Cell-Based System Using Plate Reader - 2084-02_Inhibitor_Dose_DryPowder_Activity_Set5.; type: functional
[9] = MITF Measured in Cell-Based System Using Plate Reader - 2084-01_Inhibitor_Dose_DryPowder_Activity_Set7.; type: functional
[10] = target: RNA-editing ligase 1, mitochondrial (Trypanosoma brucei brucei, UniProt P86926); assay: inhibition of trypanosome RNA editing ligase – biochemical, fluorescence, Trypanosoma brucei, dose response (AID 1117295); type: functional
[11] = target: E3 ubiquitin-protein ligase Mdm2 (Homo sapiens, UniProt Q00987); assay: MDM2-luc reporter signal enhancers, multi-concentration potency testing, MDM2 ubiquitin-protein ligase inhibitor program, whole-cell format, luminescence detection, 384-well microplate (AID 1394); type: functional;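 further: MDM2 E3 inhibitors raise luminescence so EC50 is for signal enhancement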
Kallikrein-7 = Kallikrein-7 (Homo sapiens, UniProt P49862); assay: Fluorescence Intensity-based biochemical primary high throughput dose response assay to identify activators of kallikrein-7 (K7) zymogen.
[12] = inhibition of Env-driven cell fusion – HIV entry, plate reader, dry powder, dose response (AID 687023); type: functional, cell-based
[13] = viability loss in CEM21 cells – cell-based, plate reader, dry powder, cytotoxicity control, dose response (AID 687026); type: functional
Phospholipase D1 = Phospholipase D1 (Homo sapiens, UniProt Q13393); assay: PLD1 Cellular Concentration Response Study.; type: functional
Phospholipase D2 = Phospholipase D2 (Homo sapiens, UniProt O14939); assay: PLD2 Cellular Concentration Response Study.; type: functional
[14] = target: Glutathione-S-transferase (Schistosoma japonicum, UniProt Q26513); assay: GST-antibody interaction or FRET quenching – biochemical, TR-FRET, artefact control for Vif-APOBEC3G degradation inhibitor project, dose response (AID 1117362); type: functional
[15] = P. falciparum Dd2 growth inhibitors, dose response, SYBR Green, cherry-picked samples (AID 1159567); type: functional, cell-based
[16] = Dd2 malaria parasite growth inhibition potency – SYBR Green, dry powder samples, dose response (AID 1159566); type: functional, cell-based;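 further: potency for growth inhibition with lower SYBR green DNA signal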
[17] = growth inhibition of yeast DHODH-expressing 3D7 parasites – SYBR Green, dry powder samples, dose response (AID 1159570); type: functional, cell-based;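 further: parasite growth measured after 72 hours of compound exposure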
[18] = toxicity to human HepG2 hepatoma cells – cell-based, plate reader, dry powder samples, cytotoxicity control, dose response (AID 1159569); type: functional;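 further: inhibitor potency with signal falling toward the positive control level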
[19] = growth inhibition of PfATP4-mutant resistant parasites – NITD609-resistant line, SYBR Green, dry powder, dose response (AID 1159571); type: functional, cell-based;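 further: parasites synchronized at ring stage by sorbitol before testing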
[20] = Luminescence-based cell-based high throughput dose response assay to identify activators of the DAF-12 from the parasite S. stercoralis (ssDAF-12).; type: functional
[21] = target: Oxysterols receptor LXR-beta (Homo sapiens, UniProt P55055); assay: LXR agonists, Gal4 luciferase reporter, dose response, counter-screen for ssDAF-12 agonist project, cell-based, luminescence, HEK293, S. stercoralis campaign (AID 720737); type: functional; conditions: read-out: IC50 (the source's name)
Cytochrome P450 1A2 = target: T1, Cytochrome P450 1A2 (Homo sapiens, UniProt P05177);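 further: PubChem cytochrome P450 panel assay, CYP1A2 panel member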
T1 sequence (P05177 whole entry): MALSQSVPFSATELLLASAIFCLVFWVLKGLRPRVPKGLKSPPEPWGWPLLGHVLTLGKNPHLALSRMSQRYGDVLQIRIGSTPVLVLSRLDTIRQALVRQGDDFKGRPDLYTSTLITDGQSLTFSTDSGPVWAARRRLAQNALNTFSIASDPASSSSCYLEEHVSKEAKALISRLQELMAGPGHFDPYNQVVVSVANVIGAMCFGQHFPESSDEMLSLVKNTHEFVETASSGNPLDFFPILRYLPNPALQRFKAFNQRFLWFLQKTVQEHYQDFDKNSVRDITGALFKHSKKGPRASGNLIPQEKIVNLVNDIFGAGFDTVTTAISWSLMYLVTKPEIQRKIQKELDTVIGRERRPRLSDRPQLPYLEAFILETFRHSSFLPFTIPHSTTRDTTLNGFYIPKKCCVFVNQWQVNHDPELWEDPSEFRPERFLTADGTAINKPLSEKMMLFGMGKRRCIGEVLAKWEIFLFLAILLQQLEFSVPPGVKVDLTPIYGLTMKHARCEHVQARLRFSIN

cells [22] = type: functional, cell-based; conditions: INS-1E
[23] = IC50 of insulin release inhibition, rat insulinoma INS-1E line, 5 mM glucose, cell-based (AID 1117331); type: functional
[24] = target: SWI/SNF-related matrix-associated actin-dependent regulator of chromatin subfamily A member 2 (Homo sapiens, UniProt P51531); assay: Luminescence-based cell-based high throughput dose response assay to identify activators of the function of SWI/SNF related, matrix associated, actin dependent regulator of chromatin, subfamily a, member 2 (SMARCA2, BRM).; type: functional
[25] = target: DNA repair and recombination protein RAD54-like (Homo sapiens, UniProt Q92698); assay: RAD54 Holliday junction migration blockers – biochemical, fluorescence, cherry-picked samples, dose series, confirmation (AID 651657); type: functional
[26] = Luminescence Cell-Based Dose Response HTS to Identify Inhibitors of 5'UTR Stem-Loop Driven Prion Protein mRNA Translation in H4 Neuroglioblastoma Cells. [Related pubchem assays: 1827 (Project Summary), 1813 (Primary HTS)]; type: functional
[27] = ATP-based viability loss in HEK293T cells – cell-based, CellTiter-Glo luminescence, cherry-picked samples, set 4, cytotoxicity control, dose response (AID 743441); type: functional; conditions: HEK293
[28] = A549 lung cell viability reduction – CellTiter-Glo luminescence, cherry-pick, cytotoxicity control, dose response (AID 743484); type: functional, cell-based
[29] = alpha-synuclein stem-loop luciferase translation blockers – H4 neuroglioma cells, luminescence, confirmation (AID 1988); type: functional, cell-based
[30] = target: T2, Heat shock factor protein 1 (Mus musculus, UniProt P38532); assay: enhancement of HSF1-driven luciferase signal – cell-based, NIH3T3, luminescence, dose retest, confirmation (AID 435004); type: functional;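 further: stress induced by proteasome inhibitor MG132 added 30 min after compound; luciferase reporter driven by HSF1 response element in NIH3T3 cells; actives raise luminescence as potentiators of the MG132 stress response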
T2 sequence (P38532 whole entry): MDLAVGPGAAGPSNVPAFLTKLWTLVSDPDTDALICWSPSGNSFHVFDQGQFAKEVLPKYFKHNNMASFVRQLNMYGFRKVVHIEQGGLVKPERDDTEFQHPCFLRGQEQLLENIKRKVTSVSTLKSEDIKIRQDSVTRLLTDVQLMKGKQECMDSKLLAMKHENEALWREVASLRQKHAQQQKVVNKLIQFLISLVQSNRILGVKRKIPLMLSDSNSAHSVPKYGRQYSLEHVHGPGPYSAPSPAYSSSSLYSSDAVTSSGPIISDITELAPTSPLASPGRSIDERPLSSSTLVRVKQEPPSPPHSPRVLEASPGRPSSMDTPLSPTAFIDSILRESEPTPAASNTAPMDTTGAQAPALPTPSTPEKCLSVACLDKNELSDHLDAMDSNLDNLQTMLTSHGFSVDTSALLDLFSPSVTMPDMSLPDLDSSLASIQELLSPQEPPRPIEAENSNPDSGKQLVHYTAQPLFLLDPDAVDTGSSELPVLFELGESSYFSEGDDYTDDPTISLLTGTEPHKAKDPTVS

[31] = Counterscreen for activators of the function of SWI/SNF related, matrix associated, actin dependent regulator of chromatin, subfamily a, member 2 (SMARCA2, BRM): Luminescence-based cell-based high throughput dose response assay to identify non-selective compounds using the VP16 reporter assay.; type: functional
[32] = inhibitors of non-replicating M. tuberculosis, dose response, luciferase, dry powder (AID 651619); type: functional; conditions: Mycobacterium tuberculosis
[33] = inhibitors of non-replicating M. tuberculosis, dose response, luciferase, dry powder (AID 651620); type: functional; conditions: Mycobacterium tuberculosis
Transthyretin = Transthyretin (Homo sapiens, UniProt P02766); assay: Luminescence-based cell-based high throughput dose response assay to identify activators of Transthyretin (TTR) transcription.; type: functional
[34] = A cytotoxicity screen of small molecule inhibitors of the PhoP region in Salmonella typhi identified in the primary screen. [Related pubchem assays: 1850, 1864, 1985 ]; type: functional
[35] = target: Sphingosine 1-phosphate receptor 2 (Homo sapiens, UniProt O95136); assay: Dose Response Cell Based Assay for Agonists of the S1P2 Receptor. [Related pubchem assays: 729, 736, 843 ]; type: functional
[36] = target: G-protein coupled receptor 183 (Homo sapiens, UniProt P32249); assay: SAR confirmation of small molecule antagonists of the EBI2 receptor via a luminescent beta-arrestin assa.; type: functional
[37] = target: Calcium-dependent protein kinase 1 (Plasmodium falciparum, UniProt P62344); assay: PfCDPK1 kinase inhibitors, biochemical, TCAMS library (AID 1159585); type: functional
[38] = target: Mitogen-activated protein kinase 10 (Homo sapiens, UniProt P53779); assay: Dose response biochemical screening assay for inhibitors of c-Jun N-Terminal Kinase 3 (JNK3). [Related pubchem assays: 746 ]
Major prion protein = Major prion protein (Homo sapiens, UniProt P04156); type: functional, cell-based
cells [39] = assay: cells

## NC1=C(NS(=O)(=O)c2ccc(Br)cc2)C(=O)c2ccccc2C1=O
[1]
  AC50: > 70 µM (inactive)
[2]
  AC50: > 70 µM (inactive)
[3]
  AC50: 41.5 µM (active)
[4]
  AC50: > 70 µM (inactive)
[5]
  AC50: > 70 µM (inactive)
[6]
  AC50: > 70 µM (inactive)
[7]
  AC50: > 70 µM (inactive)
[8]
  AC50: > 70 µM (inactive)
[9]
  AC50: 53.6 µM (active)

## C=CCNC1=NC(c2ccc(F)cc2)C(C(=O)OC)=C(C)N1Cc1ccccc1C(F)(F)F (stereo not given)
[10]
  IC50: > 96.6 µM (inactive)

## CN1C(C(=O)NCc2cccc(Br)c2)CC2Cn3c(nc4cc5ccccc5cc43)C21 (stereo not given)
[11]
  EC50: 11.1 µM (not active)

## O=C1NC(C2CC3C=CC2C3)Nc2ccccc21 (stereo not given)
Kallikrein-7
  EC50: > 69.4 µM (inactive)

## CCOc1ccc(S(=O)(=O)NCc2ccncc2)cc1OCC
[12]
  AC50: 0.562 µM (active)
[13]
  AC50: > 70 µM (inactive)

## O=C(NCCN1CCC2(CC1)C(=O)NCN2Cc1cccc(Cl)c1)c1ccc2ccccc2c1
Phospholipase D1
  IC50: 2.8 µM (active)
Phospholipase D2
  IC50: 0.25 µM (active)

## O=C(O)C1Cc2ccccc2N2CCCC12 (stereo not given)
[14]
  IC50: 16.3 µM (active)

## CC(C)CC#Cc1ccc([C@@H]2[C@H](CO)N3CCCCN(S(=O)(=O)Cc4ccccc4)C[C@@H]23)cc1
[15]
  AC50: 2.3 µM (active)
[16]
  AC50: 0.805 µM (active)
[17]
  AC50: 1.48 µM (active)
[18]
  AC50: 9.93 µM (active)
[19]
  AC50: 0.957 µM (active)

## c1ccc(SCc2nc3ccccc3s2)nc1
[20]
  IC50: > 67.5 µM (inactive)
[21]
  EC50: > 67.5 µM (inactive)

## CCN(CC)CCOCCOC(=O)C1(c2ccccc2)CCCC1 [CARBETAPENTANE]
Cytochrome P450 1A2
  AC50: 20 µM (inconclusive)
Cells [22]
  IC50: > 33.3 µM (inactive)
[23]
  IC50: 7.69 µM (inactive)

## CCN(CC)CCn1c2ccccc2c2nc3ccc([N+](=O)[O-])cc3cc21
[24]
  EC50: 7.55 µM (active)
[25]
  AC50: 1.56 µM (active)
[26]
  EC50: > 120 µM (not active)
[27]
  AC50: 5.85 µM (active)
[28]
  AC50: 39.6 µM (active)
[29]
  EC50: 8.22 µM (inconclusive)
[30]
  EC50: 15.8 µM (active)
[31]
  EC50: > 91.2 µM (inactive)

## c1ccc(CSc2nnc(-c3ccncc3)o2)nc1
[32]
  IC90: 16 µM (active)
[33]
  IC90: 16 µM (active)

## O=C(O)c1ccc(CSc2nnc(Cc3ccccc3)o2)cc1
Transthyretin
  EC50: > 167 µM (inactive)

## Cc1cc(Br)ccc1OCCCCNCCO
[34]
  EC50: > 50 µM (active)
[35]
  EC50: > 50 µM (not active)

## O=C(Cc1ccc(Br)cc1)N1CCN(C(=O)c2ccc(Cl)cc2)CC1
[36]
  IC50: > 1 µM (inactive)

## CC(C)(CN)c1nc(-c2ccc(Cl)c(O)c2)c(-c2ccnc(N)n2)[nH]1
[37]
  IC50: 0.007 µM (active)

## O=C(O)CSc1ccc2ccccc2n1
[38]
  IC50: > 93.1 µM (not active)
Major prion protein
  IC50: 6.89 µM (active)
Cells [39]
  IC50: > 138 µM (inactive)
